Assay results: ChEMBL document CHEMBL1201862, “PubChem BioAssay data set” (2004)
Active and inactive are the calls of the source.

Assays:
[1] = biological target: Lysosomal acid glucosylceramidase (Homo sapiens, UniProt P04062); test: Dose response cell-based high throughput screening assay to identify enhancers of beta-glucosidase activity. [Related pubchem assays: 784 ]; assay type: functional
[2] = biological target: G-protein coupled receptor 55 (Homo sapiens, UniProt Q9Y2T6); test: inhibition of LPI-stimulated GPR55 beta-arrestin translocation – imaging, U2OS, beta-arrestin-GFP, LPI agonist, primary screen (AID 2013); assay type: functional;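 further: antagonist potency measured as reduced agonist-driven arrestin aggregation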
G-protein coupled receptor 55, sequence (Q9Y2T6 whole entry): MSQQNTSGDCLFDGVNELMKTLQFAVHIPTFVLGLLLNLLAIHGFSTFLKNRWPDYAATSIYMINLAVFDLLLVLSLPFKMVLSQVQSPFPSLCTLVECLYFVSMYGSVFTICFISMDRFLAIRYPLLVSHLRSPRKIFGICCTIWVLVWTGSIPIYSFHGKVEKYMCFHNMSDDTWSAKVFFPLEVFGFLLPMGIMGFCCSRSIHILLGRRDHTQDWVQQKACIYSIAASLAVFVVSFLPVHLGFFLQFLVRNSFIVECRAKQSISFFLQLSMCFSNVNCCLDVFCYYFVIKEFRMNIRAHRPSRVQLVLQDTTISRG

Large T antigen = Large T antigen (Simian virus 40, UniProt P03070); assay type: functional, Betapolyomavirus macacae;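 further: Confirmatory-stage PubChem screen for compounds that inhibit SV40 T antigen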
[3] = biological target: FAD-linked sulfhydryl oxidase ALR (Homo sapiens, UniProt P55789); test: ALR-catalysed DTT oxidation blockers – biochemical, H2O2 detection, luminescence, cherry-pick, dose response (AID 493248)
[4] = biological target: T1, Polyadenylate-binding protein 1 (Homo sapiens, UniProt P11940); test: MLLE binding blockers, Cy5 peptide tracer – biochemical, fluorescence polarization, Cy5-PAM2 peptide, secondary, miRNA deadenylation inhibitor project, dose response (AID 602260); assay type: functional; settings: read-out: IC50_Mean
T1 sequence (P11940 whole entry, the tested form may be a part): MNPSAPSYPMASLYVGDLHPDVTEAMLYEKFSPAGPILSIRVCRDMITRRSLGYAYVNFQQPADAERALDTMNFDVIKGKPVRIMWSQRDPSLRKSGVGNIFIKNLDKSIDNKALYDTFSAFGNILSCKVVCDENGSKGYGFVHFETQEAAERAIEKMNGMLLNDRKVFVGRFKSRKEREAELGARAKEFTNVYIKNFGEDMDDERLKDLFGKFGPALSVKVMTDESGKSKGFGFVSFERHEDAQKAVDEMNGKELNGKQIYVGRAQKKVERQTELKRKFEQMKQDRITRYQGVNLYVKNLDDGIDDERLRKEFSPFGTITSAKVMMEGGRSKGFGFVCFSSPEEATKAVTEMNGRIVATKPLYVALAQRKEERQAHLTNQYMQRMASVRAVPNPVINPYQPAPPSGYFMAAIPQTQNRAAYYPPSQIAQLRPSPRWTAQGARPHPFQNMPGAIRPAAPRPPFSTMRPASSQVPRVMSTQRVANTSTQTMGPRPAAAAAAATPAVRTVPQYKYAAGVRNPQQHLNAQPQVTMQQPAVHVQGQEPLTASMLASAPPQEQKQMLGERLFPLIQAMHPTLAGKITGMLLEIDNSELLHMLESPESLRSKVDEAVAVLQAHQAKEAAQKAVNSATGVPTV

[5] = biological target: T1, Polyadenylate-binding protein 1; test: MLLE domain peptide-binding blockers, IC50 – biochemical, fluorescence polarization, FITC-PAM2 peptide, dose response (AID 602259); assay type: functional; settings: read-out: IC50_Mean
[6] = biological target: Photoreceptor-specific nuclear receptor (Homo sapiens, UniProt Q9Y5X4); assay type: functional;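 further: potency for compounds that break the NR2E3 corepressor complex and count as activators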
Photoreceptor-specific nuclear receptor, sequence (Q9Y5X4 whole entry): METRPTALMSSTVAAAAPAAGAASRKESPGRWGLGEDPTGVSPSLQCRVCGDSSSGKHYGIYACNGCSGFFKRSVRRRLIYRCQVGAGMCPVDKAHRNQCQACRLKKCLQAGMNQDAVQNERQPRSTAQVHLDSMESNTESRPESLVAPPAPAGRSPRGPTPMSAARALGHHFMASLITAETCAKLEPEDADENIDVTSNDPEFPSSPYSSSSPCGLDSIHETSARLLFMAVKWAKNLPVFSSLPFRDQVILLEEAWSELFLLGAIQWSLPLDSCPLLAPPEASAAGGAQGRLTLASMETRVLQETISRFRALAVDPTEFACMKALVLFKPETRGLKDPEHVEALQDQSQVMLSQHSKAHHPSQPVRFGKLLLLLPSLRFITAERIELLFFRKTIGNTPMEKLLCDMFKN

[7] = biological target: Peroxisome proliferator-activated receptor gamma/Nuclear receptor corepressor 2 (Homo sapiens, UniProt P37231+Q9Y618); assay type: functional
Peroxisome proliferator-activated receptor gamma/Nuclear receptor corepressor 2, sequence (P37231 whole entry): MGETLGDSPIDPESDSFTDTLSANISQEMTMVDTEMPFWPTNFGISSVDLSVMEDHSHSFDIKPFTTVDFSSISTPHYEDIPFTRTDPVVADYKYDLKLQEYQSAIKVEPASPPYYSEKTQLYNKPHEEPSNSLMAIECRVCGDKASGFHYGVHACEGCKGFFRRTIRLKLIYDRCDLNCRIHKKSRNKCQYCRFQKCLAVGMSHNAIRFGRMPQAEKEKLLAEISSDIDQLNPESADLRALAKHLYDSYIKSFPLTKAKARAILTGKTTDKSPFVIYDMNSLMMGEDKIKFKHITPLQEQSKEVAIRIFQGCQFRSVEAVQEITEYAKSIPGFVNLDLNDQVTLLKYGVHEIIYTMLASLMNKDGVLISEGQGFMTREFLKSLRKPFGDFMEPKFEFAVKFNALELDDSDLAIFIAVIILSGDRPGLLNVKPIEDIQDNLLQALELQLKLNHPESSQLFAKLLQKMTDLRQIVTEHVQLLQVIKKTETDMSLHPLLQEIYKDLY
Peroxisome proliferator-activated receptor gamma/Nuclear receptor corepressor 2, sequence (Q9Y618 whole entry): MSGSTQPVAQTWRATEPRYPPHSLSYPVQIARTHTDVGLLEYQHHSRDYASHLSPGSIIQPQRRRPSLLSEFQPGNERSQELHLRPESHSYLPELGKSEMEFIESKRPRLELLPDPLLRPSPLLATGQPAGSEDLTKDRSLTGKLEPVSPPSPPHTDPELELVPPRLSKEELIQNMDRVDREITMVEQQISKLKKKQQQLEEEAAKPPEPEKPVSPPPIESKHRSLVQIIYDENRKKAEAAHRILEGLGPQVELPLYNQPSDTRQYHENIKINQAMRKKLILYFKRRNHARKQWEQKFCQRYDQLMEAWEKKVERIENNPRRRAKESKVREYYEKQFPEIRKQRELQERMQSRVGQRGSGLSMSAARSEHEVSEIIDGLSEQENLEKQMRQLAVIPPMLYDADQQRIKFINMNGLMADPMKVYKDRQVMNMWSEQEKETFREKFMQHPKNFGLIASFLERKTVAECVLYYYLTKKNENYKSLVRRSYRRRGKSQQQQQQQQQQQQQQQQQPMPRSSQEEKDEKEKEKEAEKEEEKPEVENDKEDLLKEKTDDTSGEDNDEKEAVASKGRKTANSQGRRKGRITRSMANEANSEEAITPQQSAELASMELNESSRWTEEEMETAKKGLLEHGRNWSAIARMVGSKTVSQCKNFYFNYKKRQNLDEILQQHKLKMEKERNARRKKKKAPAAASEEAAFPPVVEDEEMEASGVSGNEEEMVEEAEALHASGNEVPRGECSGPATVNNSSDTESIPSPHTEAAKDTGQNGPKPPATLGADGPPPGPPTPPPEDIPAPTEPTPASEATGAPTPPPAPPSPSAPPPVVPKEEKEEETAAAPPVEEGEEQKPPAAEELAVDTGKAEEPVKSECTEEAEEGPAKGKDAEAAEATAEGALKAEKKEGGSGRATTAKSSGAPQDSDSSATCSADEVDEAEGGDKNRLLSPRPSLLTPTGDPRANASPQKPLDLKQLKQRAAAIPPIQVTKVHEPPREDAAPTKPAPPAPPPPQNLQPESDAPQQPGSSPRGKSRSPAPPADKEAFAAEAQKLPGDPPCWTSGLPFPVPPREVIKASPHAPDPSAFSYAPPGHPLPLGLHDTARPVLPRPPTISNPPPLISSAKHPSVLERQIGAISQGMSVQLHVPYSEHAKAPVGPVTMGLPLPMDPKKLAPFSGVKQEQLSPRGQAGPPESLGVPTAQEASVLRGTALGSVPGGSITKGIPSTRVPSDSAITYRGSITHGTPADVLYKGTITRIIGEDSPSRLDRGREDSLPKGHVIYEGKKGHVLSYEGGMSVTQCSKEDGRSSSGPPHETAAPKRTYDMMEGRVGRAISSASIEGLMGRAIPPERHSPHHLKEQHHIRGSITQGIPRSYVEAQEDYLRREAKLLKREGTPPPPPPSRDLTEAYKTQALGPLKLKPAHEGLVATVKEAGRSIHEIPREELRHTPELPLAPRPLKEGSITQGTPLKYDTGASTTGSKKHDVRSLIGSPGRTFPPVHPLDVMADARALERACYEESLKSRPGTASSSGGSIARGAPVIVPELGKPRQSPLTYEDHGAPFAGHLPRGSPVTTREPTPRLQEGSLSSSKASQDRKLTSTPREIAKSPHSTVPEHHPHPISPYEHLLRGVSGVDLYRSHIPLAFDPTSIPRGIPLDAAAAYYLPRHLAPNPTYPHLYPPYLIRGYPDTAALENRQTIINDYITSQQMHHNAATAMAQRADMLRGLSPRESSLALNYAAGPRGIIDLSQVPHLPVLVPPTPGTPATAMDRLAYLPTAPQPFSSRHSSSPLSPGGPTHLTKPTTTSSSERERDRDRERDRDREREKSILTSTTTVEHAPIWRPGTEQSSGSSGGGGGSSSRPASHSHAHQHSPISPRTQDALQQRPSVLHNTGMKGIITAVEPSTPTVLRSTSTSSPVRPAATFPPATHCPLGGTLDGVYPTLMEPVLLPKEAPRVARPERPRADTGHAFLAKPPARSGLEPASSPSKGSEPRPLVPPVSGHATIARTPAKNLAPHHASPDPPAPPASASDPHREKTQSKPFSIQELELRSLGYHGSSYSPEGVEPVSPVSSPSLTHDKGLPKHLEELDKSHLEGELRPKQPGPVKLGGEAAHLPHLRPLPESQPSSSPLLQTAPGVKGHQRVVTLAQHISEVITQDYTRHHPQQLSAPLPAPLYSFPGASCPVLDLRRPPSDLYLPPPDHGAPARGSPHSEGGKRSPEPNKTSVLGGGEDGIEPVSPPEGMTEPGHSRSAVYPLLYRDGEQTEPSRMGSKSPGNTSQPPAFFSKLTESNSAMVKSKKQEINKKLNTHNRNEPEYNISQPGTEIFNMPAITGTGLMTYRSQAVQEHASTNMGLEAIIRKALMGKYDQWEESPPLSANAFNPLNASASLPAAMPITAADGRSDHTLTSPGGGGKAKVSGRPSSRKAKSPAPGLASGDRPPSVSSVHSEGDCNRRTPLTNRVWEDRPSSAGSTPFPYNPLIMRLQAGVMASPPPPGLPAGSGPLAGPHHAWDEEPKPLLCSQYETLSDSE

[8] = THP-1 cell cytotoxicity, dose response, cytotoxicity control for non-replicating M. tuberculosis project (AID 489025); assay type: functional
[9] = HepG2 cell cytotoxicity, dose response, cytotoxicity control for non-replicating M. tuberculosis project (AID 489018); assay type: functional; settings: Mycobacterium tuberculosis
[10] = Vero E6 cell cytotoxicity, dose response, cytotoxicity control for non-replicating M. tuberculosis project, secondary assay (AID 492998); assay type: functional, VeroE6; settings: Vero C1008
cells = assay type: functional
HEK293 [11] = test: EBV LMP1 TES2 canonical NF-kB signalling blockers – cell-based, HEK293, luciferase, cherry-pick, dose response (AID 588343); assay type: functional; settings: Homo sapiens
H9c2 = test: cells; assay type: functional, cell-based; settings: Rattus norvegicus, H9c2, Myocardium;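 further: confirmatory concentration-response retest of ultra-high-throughput screening hits for modulation of myocardial damage; cell death induced by hydrogen peroxide oxidative stress; compound pretreatment for 60 min then peroxide exposure for 2 h; potency is for protecting the cells against peroxide damage rather than for killing them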
HEK293 [12] = test: Fluorescence-based counterscreen for potentiators or agonists of NPY-Y2: cell-based high-throughput dose response assay to identify inhibitors of cyclic nucleotide gated ion channel (CNGC) activity. In this assay, the parental HEK293 cell line transfected with a cyclic-nucleotide gated ion channel (CNGC)-based cAMP sensor is used to measure inhibition of isoproterenol-induced CNGC activity by test compound.; assay type: functional; settings: Homo sapiens
[13] = system: Streptococcus sp. 'group A'; test: Streptococcus pyogenes SK(-)GAS viability under kanamycin – luminescence, BacTiterGlo, confirmation, counter-screen for streptokinase expression inhibitor project, dose response (AID 1900); assay type: functional, organism-based
[14] = biological target: T2, Neuropeptide Y receptor type 2 (Homo sapiens, UniProt P49146); test: Fluorescence-based cell-based high-throughput dose response assay for agonists of NPY-Y2. [Related pubchem assays: 1703 (Screening assay (CNGC inhibitors).), 1359 (Screening assay (NPY-Y2 potentiators or agonists).), 1304 (Screening assay (NPY-Y1 potentiators or agonists).), 1710 (Screening assay (NPY-Y2 agonists).), 1791 (Summary AID.)]; assay type: functional
T2 sequence (P49146 whole entry): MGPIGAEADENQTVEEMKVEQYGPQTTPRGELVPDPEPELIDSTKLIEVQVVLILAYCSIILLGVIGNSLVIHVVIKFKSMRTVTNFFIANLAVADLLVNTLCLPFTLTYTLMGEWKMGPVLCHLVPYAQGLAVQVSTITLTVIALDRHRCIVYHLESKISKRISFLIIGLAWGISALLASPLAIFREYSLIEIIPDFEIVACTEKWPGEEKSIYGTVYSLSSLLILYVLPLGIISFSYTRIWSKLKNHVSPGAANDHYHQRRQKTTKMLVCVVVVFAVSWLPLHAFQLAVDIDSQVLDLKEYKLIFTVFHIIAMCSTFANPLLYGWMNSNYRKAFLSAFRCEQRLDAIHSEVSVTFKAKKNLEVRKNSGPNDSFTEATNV

Streptokinase A = biological target: T3, Streptokinase A (Streptococcus pyogenes serotype M1, UniProt P10520); test: viability-normalized secreted streptokinase activity reduction – plasminogen activation absorbance, OD405, dose response (AID 1914); assay type: functional, Streptococcus pyogenes M1 GAS;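 further: secreted streptokinase activity via plasminogen activation per viability signal from cell pellet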
T3 sequence (P10520 whole entry): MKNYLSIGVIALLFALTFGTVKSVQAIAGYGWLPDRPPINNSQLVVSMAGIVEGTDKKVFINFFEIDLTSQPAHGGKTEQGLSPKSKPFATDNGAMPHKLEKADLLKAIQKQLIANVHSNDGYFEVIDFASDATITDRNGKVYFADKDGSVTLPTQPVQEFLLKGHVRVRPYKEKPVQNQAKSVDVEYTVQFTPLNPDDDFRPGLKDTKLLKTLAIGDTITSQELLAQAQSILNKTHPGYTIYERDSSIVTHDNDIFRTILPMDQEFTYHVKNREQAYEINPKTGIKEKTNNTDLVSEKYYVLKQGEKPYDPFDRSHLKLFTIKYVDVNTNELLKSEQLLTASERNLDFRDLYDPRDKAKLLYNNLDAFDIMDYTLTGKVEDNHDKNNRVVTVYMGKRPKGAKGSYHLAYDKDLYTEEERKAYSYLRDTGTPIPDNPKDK

[15] = biological target: T4, Neuropeptide Y receptor type 1 (Homo sapiens, UniProt P25929); test: Fluorescence-based counterscreen for agonists of NPY-Y2: cell-based high-throughput dose response assay for agonists of NPY-Y1.; assay type: functional
T4 sequence (P25929 whole entry): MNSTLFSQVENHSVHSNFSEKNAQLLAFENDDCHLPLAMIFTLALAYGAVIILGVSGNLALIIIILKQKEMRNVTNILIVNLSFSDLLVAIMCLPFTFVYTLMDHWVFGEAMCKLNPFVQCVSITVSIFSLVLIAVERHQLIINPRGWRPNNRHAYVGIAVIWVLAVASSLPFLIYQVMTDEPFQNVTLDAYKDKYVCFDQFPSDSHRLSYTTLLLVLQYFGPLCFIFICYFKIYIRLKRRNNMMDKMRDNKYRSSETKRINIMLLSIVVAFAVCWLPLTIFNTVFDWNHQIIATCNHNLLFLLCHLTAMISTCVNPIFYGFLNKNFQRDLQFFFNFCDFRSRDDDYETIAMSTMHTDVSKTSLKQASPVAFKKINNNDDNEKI

Streptococcus = test: GAS UMAA2166 growth inhibition – luminescence, BacTiterGlo, counter-screen for streptokinase expression inhibitor project, dose response (AID 1915); assay type: functional, organism-based;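 further: potency for reduction of bacterial viability or growth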
INS1 = test: INS-1E survival protection against cytokine death – cell-based, luminescence, retest, dose response (AID 449756); assay type: functional; settings: Rattus norvegicus;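 further: cell death triggered by IL-1 beta plus TNF-alpha plus IFN-gamma mixture; protective hits raise ATP signal compared with cytokine alone wells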

Lysosomal acid glucosylceramidase, sequence (P04062 whole entry): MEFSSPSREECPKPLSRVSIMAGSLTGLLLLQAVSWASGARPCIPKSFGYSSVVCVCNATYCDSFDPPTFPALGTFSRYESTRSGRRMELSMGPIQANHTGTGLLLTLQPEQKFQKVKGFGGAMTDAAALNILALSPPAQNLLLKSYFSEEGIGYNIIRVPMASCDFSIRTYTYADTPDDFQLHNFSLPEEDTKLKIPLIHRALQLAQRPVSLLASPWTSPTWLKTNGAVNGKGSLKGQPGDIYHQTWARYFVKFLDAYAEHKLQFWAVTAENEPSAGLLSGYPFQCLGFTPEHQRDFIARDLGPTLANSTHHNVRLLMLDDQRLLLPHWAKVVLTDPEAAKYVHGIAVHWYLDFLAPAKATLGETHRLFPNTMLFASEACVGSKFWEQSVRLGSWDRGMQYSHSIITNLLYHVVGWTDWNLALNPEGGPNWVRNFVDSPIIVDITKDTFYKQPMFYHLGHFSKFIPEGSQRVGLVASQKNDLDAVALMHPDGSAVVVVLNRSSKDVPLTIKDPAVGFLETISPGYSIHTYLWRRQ

SMILES: CC(C)OC(=O)CSc1nnc(-c2cccnc2)n1N
- EC50 [1]: > 10 µM (not active)

SMILES: CCn1c(Cn2nnc(-c3ccccc3)n2)nnc1SCc1ccc(Cl)c(Cl)c1
- IC50 [2]: 2.8 µM (active)

SMILES: Nc1nc2ccc(S(=O)(=O)N3CCCCC3)cc2s1
- IC50 [2]: 13.9 µM (inactive)
- IC50 (Large T antigen): 8.51 µM (active)
- AC50 [3]: 3.3 µM (active)
- IC50 [4]: > 66 µM (inactive)
- IC50 [5]: > 66 µM (inactive)

SMILES: COc1cccc(CNC(=O)COC(=O)/C(C#N)=C/c2ccc(N(C)C)cc2)c1
- IC50 [6]: > 39.8 µM (not active)
- IC50 [7]: 29.4 µM (not active)

SMILES: CCOC(=O)c1ccc(NC(=O)CSC2=NC(=O)C(CC)C(=O)N2)cc1 (stereo not drawn)
- EC50 [1]: > 10 µM (not active)

SMILES: COc1cccc(-c2nnc(NC(=O)c3ccc(S(=O)(=O)N(CC(C)C)CC(C)C)cc3)o2)c1
- CC50 [8]: 0.996 µM (active)
- CC50 [9]: 5.3 µM (active)
- CC50 [10]: 2.37 µM (active)
- IC50 (cells): 16.3 µM (active)
- AC50 (HEK293 [11]): 8.51 µM (active)
- IC50 (H9c2): > 79 µM (inactive)

SMILES: O=C(/C(=N/Nc1cccc([N+](=O)[O-])c1)C(=O)C(F)(F)F)c1ccc(Br)cc1
- EC50 (HEK293 [12]): 12.2 µM (not active)
- EC50 [13]: 7.63 µM (active)
- EC50 [14]: 12.1 µM (not active)
- EC50 (Streptokinase A): 6.23 µM (active)
- EC50 [15]: 10.6 µM (not active)
- EC50 (Streptococcus): 5.97 µM (active)
- AC50 (INS1): 6.21 µM (active)
